As a reminder, the IC50 is the concentration that gives 50% inhibition. High values mean a need for much substance, low ones inhibition by little substance.

In patent US20230312556A1, “ARYLAMIDE COMPOUND, PHARMACEUTICAL COMPOSITION COMPRISING SAME, AND PREPARATION METHOD THEREFOR AND USE THEREOF” (SICHUAN KELUN-BIOTECH BIOPHARMACEUTICAL CO., LTD., priority 2020, published 2023) one finds IC50 data, which are given here for 21 molecules.

Test [1] addresses mutant BRAF enzyme (BRAF-V600E) (Homo sapiens (Human), UniProt P15056, V600E). Description: RAF inhibition assay (TB-PMAP2K1 kit), BRAF-V600E. To be noted: FLUORESCEIN-MAP2K1 substrate, 60 min reaction. Type of test: biochemical.
Test [2] addresses mutant CRAF enzyme (RAF1 Y340D and Y341D) (Homo sapiens (Human), UniProt P04049, Y340D/Y341D). Description: RAF inhibition assay (TB-PMAP2K1 kit), mutant CRAF. Conditions: FLUORESCEIN-MAP2K1 substrate, 60 min reaction. Type of test: biochemical.

mutant BRAF enzyme (BRAF-V600E), sequence (P15056 whole entry V600E): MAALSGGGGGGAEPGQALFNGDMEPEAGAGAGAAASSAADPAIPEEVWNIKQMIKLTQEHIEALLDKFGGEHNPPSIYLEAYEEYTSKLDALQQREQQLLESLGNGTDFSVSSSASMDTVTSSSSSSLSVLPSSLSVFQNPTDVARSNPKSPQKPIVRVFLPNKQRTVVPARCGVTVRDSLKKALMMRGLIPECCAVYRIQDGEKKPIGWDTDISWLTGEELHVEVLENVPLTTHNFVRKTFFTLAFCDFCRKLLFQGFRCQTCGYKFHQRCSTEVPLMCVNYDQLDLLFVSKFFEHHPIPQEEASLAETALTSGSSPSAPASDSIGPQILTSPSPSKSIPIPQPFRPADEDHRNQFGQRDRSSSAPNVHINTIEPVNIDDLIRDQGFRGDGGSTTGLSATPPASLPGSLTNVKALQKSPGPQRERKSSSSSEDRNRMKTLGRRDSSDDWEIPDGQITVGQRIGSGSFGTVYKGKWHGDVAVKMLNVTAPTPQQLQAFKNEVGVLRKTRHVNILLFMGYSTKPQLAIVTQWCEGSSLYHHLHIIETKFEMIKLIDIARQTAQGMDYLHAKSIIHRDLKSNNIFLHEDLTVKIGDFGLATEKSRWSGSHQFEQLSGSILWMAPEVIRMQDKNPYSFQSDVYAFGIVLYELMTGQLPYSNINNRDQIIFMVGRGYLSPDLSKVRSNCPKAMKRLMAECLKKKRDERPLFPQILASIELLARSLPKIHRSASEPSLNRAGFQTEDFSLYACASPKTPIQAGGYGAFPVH
mutant CRAF enzyme (RAF1 Y340D and Y341D), sequence (P04049 whole entry Y340D/Y341D): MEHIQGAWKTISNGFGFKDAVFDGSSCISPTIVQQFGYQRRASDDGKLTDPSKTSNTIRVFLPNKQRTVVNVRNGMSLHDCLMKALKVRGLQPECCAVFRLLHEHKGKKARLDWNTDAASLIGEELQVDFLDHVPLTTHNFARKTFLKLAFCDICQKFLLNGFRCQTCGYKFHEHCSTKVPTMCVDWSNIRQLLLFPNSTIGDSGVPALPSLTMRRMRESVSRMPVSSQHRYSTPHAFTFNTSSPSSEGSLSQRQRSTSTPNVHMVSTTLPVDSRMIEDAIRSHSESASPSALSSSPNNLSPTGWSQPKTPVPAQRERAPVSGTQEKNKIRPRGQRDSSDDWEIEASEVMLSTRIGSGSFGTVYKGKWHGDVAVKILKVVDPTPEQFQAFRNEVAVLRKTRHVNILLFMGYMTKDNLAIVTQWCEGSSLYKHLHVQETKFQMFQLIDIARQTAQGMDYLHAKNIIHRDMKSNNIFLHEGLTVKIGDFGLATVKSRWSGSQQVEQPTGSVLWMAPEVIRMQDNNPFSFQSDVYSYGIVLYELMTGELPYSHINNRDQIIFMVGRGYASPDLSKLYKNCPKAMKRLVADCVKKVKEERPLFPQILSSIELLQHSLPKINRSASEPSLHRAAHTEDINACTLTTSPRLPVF

With `COc1ccc(Nc2nccc3c(NC(=O)c4cccc5c(N)ncnc45)c(C)ccc23)c(F)c1` [Compound 60, 4-amino-N-(1-((2-fluoro-4-methoxyphenyl)amino)-6-methylisoquinolin-5-yl)quinazoline-8-carboxamide], the IC50 was determined as 6.31 ± 1.09 nM in test [1] and 3.14 ± 0.09 nM in test [2].

For `Cc1ccc2c(Nc3cccc(C(F)(F)F)c3)nccc2c1NC(=O)c1cnc2c(N)ncnn12` [Compound 43, 4-amino-N-(6-methyl-1-((3-(trifluoromethyl)phenyl)amino)isoquinolin-5-yl)imidazo[2,1-f][1,2,4]triazine-7-carboxamide], the figures for the IC50 in test [1] and in test [2] were 4.84 ± 0.97 nM and 4.49 ± 0.95 nM, respectively.

Turning to `Cc1ccc2c(Nc3cccc(Cl)c3F)nccc2c1NC(=O)c1cc(F)cc2c(N)ncnc12` [Compound 46, 4-amino-N-(1-((3-chloro-2-fluorophenyl)amino)-6-methylisoquinolin-5-yl)-6-fluoroquinazoline-8-carboxamide], the IC50 in test [1] came out at 16.2 ± 5.93 nM; in test [2], 38.1 ± 21.9 nM.

Turning to `Cc1ccc2c(Nc3ccc(F)c(Cl)c3)nccc2c1NC(=O)c1cnc2c(N)ncnn12` [Compound 58, 4-amino-N-(1-((3-chloro-4-fluorophenyl)amino)-6-methylisoquinolin-5-yl)imidazo[2,1-f][1,2,4]triazine-7-carboxamide], the IC50 in test [1] worked out at 4.47 ± 0.6 nM; in test [2], 2.68 ± 0.13 nM.

Turning to `Cc1ccc2c(C(O)c3cccc(C(F)(F)F)c3)nccc2c1NC(=O)c1csc2c(N)ncnc12` (stereo not drawn) [Compound 23, 4-amino-N-(1-(hydroxy(3-(trifluoromethyl)phenyl)methyl)-6-methylisoquinolin-5-yl)thieno[3,2-d]pyrimidine-7-carboxamide], the 50% inhibitory concentration (IC50) in test [1] stood at 13.2 ± 3.17 nM; in test [2], 3.93 ± 1 nM.

`Cc1ccc2c(C(C)Oc3ccccc3)nccc2c1NC(=O)c1csc2c(N)ncnc12` (stereo not drawn) [Compound 35, 4-amino-N-(6-methyl-1-(1-phenoxyethyl)isoquinolin-5-yl)thieno[3,2-d]pyrimidine-7-carboxamide]: the IC50 in test [1] is 50.4 ± 12.6 nM; in test [2], 15.4 ± 1.89 nM.

For `Cc1ccc2c(Nc3cc(F)c(F)cc3F)nccc2c1NC(=O)c1cccc2c(N)ncnc12` [Compound 90, 4-amino-N-(6-methyl-1-((2,4,5-trifluorophenyl)amino)isoquinolin-5-yl)quinazoline-8-carboxamide], the IC50 in test [1] came out at 18.6 ± 2.25 nM; in test [2], 14.2 ± 6.59 nM.

Consider `Cc1ccc2c(Nc3ccc(F)cc3F)nccc2c1NC(=O)c1cc(F)cc2c(N)ncnc12` [Compound 85, 4-amino-N-(1-((2,4-difluorophenyl)amino)-6-methylisoquinolin-5-yl)-6-fluoroquinazoline-8-carboxamide], for which the IC50 came to 9.02 ± 0.86 nM in test [1] and 4.43 ± 0.32 nM in test [2].

`Cc1ccc2c(Nc3cc(Cl)ccc3F)nccc2c1NC(=O)c1cccc2c(N)ncnc12` [Compound 73, 4-amino-N-(1-((5-chloro-2-fluorophenyl)amino)-6-methylisoquinolin-5-yl)quinazoline-8-carboxamide]: the results for the IC50 in test [1] and in test [2] were 11.9 ± 2.3 nM and 8.78 ± 1.48 nM, respectively.

As to `Cc1ccc2c(Cc3cccc(C(F)(F)F)c3)nccc2c1NC(=O)c1csc2c(N)ncnc12` [Compound 19, 4-amino-N-(6-methyl-1-(3-(trifluoromethyl)benzyl)isoquinolin-5-yl)thieno[3,2-d]pyrimidine-7-carboxamide], the concentration for half-maximal inhibition (IC50) in test [1] was 13.9 ± 3.24 nM; in test [2], 10.3 ± 2.29 nM.

`Cc1ccc2c(Nc3cc(S(C)(=O)=O)ccc3F)nccc2c1NC(=O)c1cccc2c(N)ncnc12` [Compound 89, 4-amino-N-(1-((2-fluoro-5-(methylsulfonyl)phenyl)amino)-6-methylisoquinolin-5-yl)quinazoline-8-carboxamide]: the figures for the IC50 in test [1] and in test [2] were 7.58 ± 0.51 nM and 4.26 ± 0.16 nM, respectively.

As for `Cc1ccc2c(Nc3ccccc3F)nccc2c1NC(=O)c1cccc2c(N)ncnc12` [Compound 39, 4-amino-N-(1-((2-fluorophenyl)amino)-6-methylisoquinolin-5-yl)quinazoline-8-carboxamide], the results for the IC50 in test [1] and in test [2] were 1.74 ± 0.23 nM and 2.6 ± 0.21 nM, respectively.

With `Nc1ncnc2c(C(=O)Nc3c(F)ccc4c(Nc5cccc(Cl)c5F)nccc34)cccc12` [Compound 92, 4-amino-N-(1-((3-chloro-2-fluorophenyl)amino)-6-fluoroisoquinolin-5-yl)quinazoline-8-carboxamide], the half-maximal inhibitory concentration (IC50) was 5.34 ± 0.75 nM in test [1] and 10.8 ± 4.78 nM in test [2].

In the case of `Cc1ccc2c(C(=O)c3cccc(C(F)(F)F)c3)nccc2c1NC(=O)c1csc2c(N)ncnc12` [Compound 22, 4-amino-N-(6-methyl-1-(3-(trifluoromethyl)benzoyl)isoquinolin-5-yl)thieno[3,2-d]pyrimidine-7-carboxamide], the IC50 in test [1] came to 26.8 ± 6.82 nM; in test [2], 14.5 ± 9.94 nM.

For the molecule `Cc1ccc2c(C(O)c3ccc(Cl)cc3F)nccc2c1NC(=O)c1csc2c(N)ncnc12` (stereo not drawn) [Compound 28, 4-amino-N-(1-((4-chloro-2-fluorophenyl)(hydroxy)methyl)-6-methylisoquinolin-5-yl)thieno[3,2-d]pyrimidine-7-carboxamide], the figures for the IC50 in test [1] and in test [2] were 4.58 ± 0.72 nM and 3.48 ± 0.48 nM, respectively.

As for `Cc1ccc2c(Nc3cccc(Cl)c3F)nccc2c1NC(=O)c1cccc2c(N)ncnc12` [Compound 1, 4-amino-N-(1-((3-chloro-2-fluorophenyl)amino)-6-methylisoquinolin-5-yl)quinazoline-8-carboxamide], the IC50 in test [1] was 4.71 ± 2.62 nM; in test [2], 5.4 ± 0.6 nM.

For `Cc1ccc2c(Nc3ccc(F)cc3F)nccc2c1NC(=O)c1cccc2c(N)ncnc12` [Compound 67, 4-amino-N-(1-((2,4-difluorophenyl)amino)-6-methylisoquinolin-5-yl)quinazoline-8-carboxamide], the IC50 amounted to 8.66 ± 0.95 nM in test [1] and 5.76 ± 1.04 nM in test [2].

`Cc1ccc2c(Nc3ccc(Cl)cc3F)nccc2c1NC(=O)c1cccc2c(N)ncnc12` [Compound 41, 4-amino-N-(1-((4-chloro-2-fluorophenyl)amino)-6-methylisoquinolin-5-yl)quinazoline-8-carboxamide]: the values for the IC50 in test [1] and in test [2] were 12.7 ± 2.28 nM and 25 ± 9.32 nM, respectively.

On to `Cc1ccc2c(Nc3cccc(Cl)c3)nccc2c1NC(=O)c1cccc2c(N)ncnc12` [Compound 38, 4-amino-N-(1-((3-chlorophenyl)amino)-6-methylisoquinolin-5-yl)quinazoline-8-carboxamide], for which the IC50 is 9.5 ± 2.68 nM in test [1] and 10.8 ± 2.02 nM in test [2].

Regarding `Cc1ccc2c(Nc3c(F)cc(F)cc3F)nccc2c1NC(=O)c1cccc2c(N)ncnc12` [Compound 94, 4-amino-N-(6-methyl-1-((2,4,6-trifluorophenyl)amino)isoquinolin-5-yl)quinazoline-8-carboxamide], the IC50 is 3.46 ± 0.22 nM in test [1] and 4.24 ± 0.17 nM in test [2].

Regarding `Cc1ccc2c(Nc3cccc(Cl)c3F)nccc2c1NC(=O)c1ccc(F)c2c(N)ncnc12` [Compound 93, 4-amino-N-(1-((3-chloro-2-fluorophenyl)amino)-6-methylisoquinolin-5-yl)-5-fluoroquinazoline-8-carboxamide], the IC50 in test [1] was 5.03 ± 0.54 nM; in test [2], 5.73 ± 0.36 nM.
